Measured values from patent US20120028278A1, “CELL LINES EXPRESSING GUANYLATE CYCLASE-C AND METHODS OF USING THEM” (CHROMOCELL CORPORATION, priority 2009, published 2012).
Where a SMILES comes first, the peptide text is derived from it. Bridges are numbered along the chain shown (N, C = ends).

Tests used:
human GC-C [1] = target: T1, human GC-C (Homo sapiens, UniProt P25092, F281L); test: Direct Cyclic GMP Enzyme Immunoassay Kit, cGMP in the produced GC-C-expressing cell line (guanylin dose-response and comparison with parental cells); type: cell-based
T1 construct: expressed in transfected cells; CMV promoter
T1 sequence (P25092 24-1073 F281L): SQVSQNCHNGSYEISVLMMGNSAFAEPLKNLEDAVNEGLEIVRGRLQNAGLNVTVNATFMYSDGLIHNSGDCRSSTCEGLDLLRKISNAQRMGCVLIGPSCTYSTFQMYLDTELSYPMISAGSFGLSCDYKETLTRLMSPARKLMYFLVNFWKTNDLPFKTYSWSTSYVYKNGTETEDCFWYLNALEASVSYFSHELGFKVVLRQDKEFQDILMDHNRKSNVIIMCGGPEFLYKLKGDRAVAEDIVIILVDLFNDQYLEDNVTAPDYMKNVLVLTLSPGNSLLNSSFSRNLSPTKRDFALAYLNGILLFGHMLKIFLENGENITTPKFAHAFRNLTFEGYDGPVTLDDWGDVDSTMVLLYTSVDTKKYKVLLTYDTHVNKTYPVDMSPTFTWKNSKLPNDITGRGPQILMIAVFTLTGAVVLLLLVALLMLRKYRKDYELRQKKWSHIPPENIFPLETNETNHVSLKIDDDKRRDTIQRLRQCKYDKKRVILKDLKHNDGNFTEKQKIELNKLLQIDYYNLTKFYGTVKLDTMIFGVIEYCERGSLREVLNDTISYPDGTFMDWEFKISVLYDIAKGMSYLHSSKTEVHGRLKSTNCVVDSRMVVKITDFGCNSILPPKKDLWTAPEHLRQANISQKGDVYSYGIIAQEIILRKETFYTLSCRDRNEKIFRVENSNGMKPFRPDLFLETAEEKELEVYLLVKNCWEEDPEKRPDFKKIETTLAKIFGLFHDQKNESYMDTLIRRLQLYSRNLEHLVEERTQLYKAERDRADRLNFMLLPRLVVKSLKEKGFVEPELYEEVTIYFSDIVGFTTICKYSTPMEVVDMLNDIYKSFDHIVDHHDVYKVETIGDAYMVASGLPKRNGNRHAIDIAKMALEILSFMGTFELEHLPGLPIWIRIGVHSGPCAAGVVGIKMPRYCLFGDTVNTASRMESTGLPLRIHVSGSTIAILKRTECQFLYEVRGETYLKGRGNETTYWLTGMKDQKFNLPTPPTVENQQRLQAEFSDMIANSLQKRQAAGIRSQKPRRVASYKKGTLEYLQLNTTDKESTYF
Procedure: Populations of cells were tested using functional criteria. The Direct Cyclic GMP Enzyme Immunoassay Kit (Cat. 900-014; AssayDesigns, Inc.) was used according to manufacturer's instructions: (http://www.assaydesigns.com/objects/catalog//product/extras/900-014.pdf). Cells were tested at 4 different densities in 96- or 384-well plates and responses were analyzed. The following conditions were used for the GC-C-expressing cell lines of the invention:
(§1) Cells were washed twice with serum-free medium and incubated with 1 mM IBMX for 30 minutes. Desired activators (i.e., guanylin, 0.001-40 μM) were then added to the cells and incubated for 30-40 minutes. Supernatant was removed, and the cells were washed with TBS buffer. […]. This was followed by lysis with 0.1N HCl and a freeze/thaw cycle at −20° C./room temperature. Defrosted lysates (samples were spun in Eppendorf tubes at 10,000 rpm) were centrifuged to pellet cell debris. The cleared supernatant lysate was then transferred to ELISA plates.
The cGMP level in the produced GC-C-expressing cell line treated with 100 nM guanylin was also compared to that of parental cell line control samples not expressing GC-C (not shown) using the Direct Cyclic GMP Enzyme Immunoassay Kit (Cat. 900-014; AssayDesigns, Inc.).
For guanylin dose-response experiments, cells of the produced GC-C-expressing cell line, plated at densities of 20,000, 40,000, 60,000, 80,000, 120,000 and 160,000 cells/well in a 96-well plate, were challenged with increasing concentration of guanylin for 30 minutes (see FIG. 2). […] 140(4):1800-1806 (1999)), indicating the potency of the clone.

other cell lines = conditions: low concentrations of guanylin, Forte et al., Endocr. 140(4):1800-1806 (1999); cited from earlier work
human GC-C [2] = target: T1, human GC-C; test: competitive ELISA for detection of cGMP in the produced GC-C-expressing cell line; type: cell-based; conditions: 100 nM guanylin; cell lysate from GC-C-expressing cell line; FIG. 1
Procedure: A competitive ELISA for detection of cGMP was used to characterize native GC-C function in the produced GC-C-expressing cell line. Cells expressing GC-C were maintained under standard cell culture conditions in DMEM supplemented with 10% fetal bovine serum, glutamine and HEPES and grown in T175 cm flasks. For the ELISA, the cells were plated into coated 96-well plates (poly-D-lysine).
as §1
All of the following steps were performed at room temperature, unless otherwise indicated. ELISA plates were coated with anti-IgG antibodies in coating buffer (Na-carbonate/bi-carbonate buffer, 0.1 M final, pH 9.6) overnight at 4° C. […] The absorbance was then read at 405 nm on a SAFIRE^2™ plate reader (Tecan).
Maximum absorbance was seen when no cell lysate was used in the ELISA (Control).

[3] = target: human guanylate cyclase-C (GC-C) (human) (UniProt P25092); test: cell-based or functional assay
Sequence of human guanylate cyclase-C (GC-C) (human) (P25092 24-1073 F281L limits assumed): as the sequence (P25092 24-1073 F281L) above

| Compound | absorbance (corresponding to cGMP levels) vs parental cells not expressing GC-C (human GC-C [1]; 100 nM guanylin, compared with parental cells treated and untreated with guanylin) | EC50 (human GC-C [1]; produced GC-C-expressing 293T cell line, guanylin 30 minutes, non-linear regression, GraphPad Prism 5.0) [nM] | level of cGMP (human GC-C [1]; produced GC-C-expressing cell line treated with low concentrations of guanylin) [pmol/mL] | level of cGMP previously reported (other cell lines) [pmol/mL] | absorbance (corresponding to cGMP levels) vs control without cell lysate (human GC-C [2]) | EC50 of guanylin dose-response, cellular cGMP level (absorbance, Direct Cyclic GMP Enzyme Immunoassay Kit) [3] [nM] | level of cGMP in the GC-C-expressing cell line treated with low concentrations of guanylin [3] [pmol/mL] |
| --- | --- | --- | --- | --- | --- | --- | --- |
| CC[C@H](C)[C@@H]1NC(=O)[C@H](CCC(=O)O)NC(=O)[C@@H](NC(=O)[C@@H](NC(=O)CNC(=O)[C@@H]2CCCN2)[C@@H](C)O)CSSC[C@@H]2NC(=O)[C@H](C)NC(=O)[C@H](C)NC(=O)[C@H](Cc3ccc(O)cc3)NC(=O)[C@H](C)NC(=O)[C@H](CSSC[C@@H](C(=O)O)NC(=O)CNC(=O)[C@H]([C@@H](C)O)NC2=O)NC1=O [guanylin] (H-PGTCEICAYAACTGC-OH; disulfide 4-12, 7-15 (inferred); N-terminus and C-terminus assumed) | greater reduction in absorbance | ~1.1 | 6 | 3.5 | Reduction in absorbance | – | – |
| guanylin (peptide) | – | – | – | – | – | 1.1 | 6 |
